In ChEMBL document CHEMBL1134424, “Synthesis and evaluation of caffeic acid amides as antioxidants” (Bioorg Med Chem Lett, 2001) one finds IC50 data, which are given here for 25 compounds.

This test in a line: Evaluated for the antioxidant property by measuring the inhibition of microsomal lipid peroxidation. The test is classed as functional.

With `CC(C)CCNC(=O)/C=C/c1ccc(O)c(O)c1`, half-maximal inhibition (IC50) was put at 1400 nM.
With `O=c1c(O)c(-c2ccc(O)c(O)c2)oc2cc(O)cc(O)c12` [QUERCETIN] the figure was 950 nM; with `CC(C)=CCNC(=O)/C=C/c1ccc(O)cc1`, 29100 nM; with `O=C(/C=C/c1ccc(O)c(O)c1)Nc1ccccc1`, 380 nM.
For `O=C(/C=C/c1ccc(O)c(O)c1)N1CCCCC1`, the IC50 (as a rule, the midpoint of a concentration-inhibition curve) is 3600 nM.
Compound `CCN(CC)C(=O)/C=C/c1ccc(O)c(O)c1` had an IC50 of 4100 nM.
For `O=C(/C=C/c1ccc(O)c(O)c1)N1CCCC1`, the IC50 was found to be 2400 nM.
On to `CC(C)NC(=O)/C=C/c1ccc(O)c(O)c1`, for which half-maximal inhibition (IC50) was put at 3900 nM.
As for `NC(=O)/C=C/c1ccc(O)c(O)c1`, 2200 nM corresponded to half-maximal inhibition (IC50).
The result for `O=C(O)/C=C/c1ccc(O)c(O)c1` [CAFFEIC ACID] reads 3300 nM.
As to `O=C(/C=C/c1ccc(O)c(O)c1)N1CCOCC1`, half-maximal inhibition (IC50) required 6100 nM.
The compound `CNC(=O)/C=C/c1ccc(O)c(O)c1` had an IC50 of 6000 nM.
Compound `CC(C)CNC(=O)/C=C/c1ccc(O)c(O)c1` returned an IC50 of 2200 nM. Compared with the last compound, the IC50 is about 2.7-fold lower.
For the compound `O=C(/C=C/c1ccc(O)c(O)c1)Nc1cccc(O)c1`, half-maximal inhibition (IC50) was put at 370 nM.
`CC(C)=CCNC(=O)/C=C/c1ccc(O)c(O)c1` showed an IC50 of 3400 nM.
With `O=C(/C=C/c1ccc(O)c(O)c1)NCCc1ccccc1` [CAFFEIC ACID PHENETHYL AMIDE], inhibition was half-maximal at 850 nM (IC50).
As for `Cc1c(C)c2c(c(C)c1O)CCC(C)(C(=O)O)O2` (stereo not given) [TROLOX], the IC50 worked out at 2800 nM.
`O=C(/C=C/c1ccc(O)c(O)c1)Nc1ccccc1O` gave an IC50 of 290 nM.
Compound `COC(=O)C(Cc1ccc(O)cc1)NC(=O)/C=C/c1ccc(O)c(O)c1` (stereo not given) displayed a 50% inhibitory concentration (IC50) of 3200 nM.
`O=C(/C=C/c1ccc(O)c(O)c1)Nc1ccc(O)cc1`: the IC50 stood at 630 nM.
In the case of `O=C(/C=C/c1ccc(O)c(O)c1)NCCc1ccc(O)c(O)c1`, it took 590 nM to reach half-maximal inhibition (IC50).
`O=C(/C=C/c1ccc(O)c(O)c1)NCc1ccccc1` had an IC50 of 1020 nM.
`C=CCNC(=O)/C=C/c1ccc(O)c(O)c1`: the IC50 was determined as 2200 nM.
Turning to `O=C(O)/C=C/c1ccc(O)cc1` [COUMARIC ACID], the IC50 turned out to be 100000 nM. Compared with the last compound, the IC50 is about 45-fold higher.
In turn, `CCNC(=O)/C=C/c1ccc(O)c(O)c1` showed an IC50 of 2700 nM.
